Laboratory results: EP4803525A1 (Hefei Institute of Pharmaceutical Industry Co., Ltd., priority 2023, dated 2025)
Read-outs that look alike come from different tables or passages of the source.

Assays:
hERG potassium channel = molecular target: T1, hERG potassium channel (Homo sapiens, UniProt Q12809); test: hERG whole-cell patch-clamp test in HEK-293 cells; assay type: cell-based
T1 construct: host or cells: HEK-293
Procedure: HEK-293 cell line stably expressing hERG potassium channels (purchased from Creacell, catalog number: A-0320) was used. HEK293 cell lines were cultured in DMEM medium containing 10% fetal bovine serum and 0.8 mg/mL G418 at a temperature of 37°C and a carbon dioxide concentration of 5%. For patch-clamp assays, cells were separated using TrypLE™ Express before the assay. 4 × 10^3 cells were seeded onto coverslips and cultured in 24-well plates (final volume: 500 µL). The assays were performed 18 hours later.
Whole-cell patch-clamp test: after whole-cell sealing is achieved, the cell membrane voltage is clamped to -80mV. […] Data was collected every 10 seconds to observe the effect of the drug on hERG tail current. A -50 mV stimulus of 0.5 s was used as the leakage current detection. Experimental data were collected by the EPC-10 amplifier and stored in the software. Once the hERG current recorded in whole cells stabilized, drug administration began. Each drug concentration was administered for 5 minutes (or the current stabilized) before the next concentration was measured.

PDE4B2 = molecular target: T2, PDE4B2 (Homo sapiens, UniProt Q07343); test: Inhibitory activity against PDE4B enzyme (AMP-Glo detection); assay type: biochemical
T2 construct: purchased BPS bioscience
Procedure: 2.1 Compound preparation and treatment: all compounds were prepared into 50 mM stock solutions using dimethyl sulfoxide.
2.2 Preparation of working stock solution: a) the reference rolipram was serially diluted 3 times with dimethyl sulfoxide starting from 2 mmol, to a total of 10 concentrations. b) 2 mmol of the compound of the present invention was serially diluted three times with dimethyl sulfoxide (DMSO) to a total of 10 concentrations. c) A 200X positive control (2 mM rolipram) and a 200X vector control (100% dimethyl sulfoxide) were prepared. d) The compound plate was centrifuged at 1000 rpm for 1 minute.
• a) An Echo 550 was used to transfer 20 nL of compound dilution to each well of the detection plate. • b) The test plate was sealed and centrifuged at 1000 rpm for 1 minute. • c) 2X PDE4B2 was prepared in frozen PDE detection buffer. • d) 2 µL of 2X PDE4B2 was added to each well of the detection plate (prepared in step b). • e) The test plate was sealed and incubated for 10 minutes under RT conditions. • f) 2X Cyclic-3',5'-AMP was prepared in PDE detection buffer. • g) 2 µl of 2X Cyclic-3',5'-AMP (prepared in step f) was added to each well of the detection plate (prepared in step e) to initiate the reaction. Incubation was performed at room temperature for 60 minutes. • h) 4 µL of AMP-Glo reagent I was added. • i) 8 µL of AMP detection solution was added. Incubation was performed at room temperature for 60 minutes. • k) The RLU signal was read on the Envision 2105 reader.

[1] = HEK-293 cells stably expressing hERG, whole-cell patch clamp, 0.03-30 µM, read-out: h ERG IC50

T1 sequence (Q12809 whole entry): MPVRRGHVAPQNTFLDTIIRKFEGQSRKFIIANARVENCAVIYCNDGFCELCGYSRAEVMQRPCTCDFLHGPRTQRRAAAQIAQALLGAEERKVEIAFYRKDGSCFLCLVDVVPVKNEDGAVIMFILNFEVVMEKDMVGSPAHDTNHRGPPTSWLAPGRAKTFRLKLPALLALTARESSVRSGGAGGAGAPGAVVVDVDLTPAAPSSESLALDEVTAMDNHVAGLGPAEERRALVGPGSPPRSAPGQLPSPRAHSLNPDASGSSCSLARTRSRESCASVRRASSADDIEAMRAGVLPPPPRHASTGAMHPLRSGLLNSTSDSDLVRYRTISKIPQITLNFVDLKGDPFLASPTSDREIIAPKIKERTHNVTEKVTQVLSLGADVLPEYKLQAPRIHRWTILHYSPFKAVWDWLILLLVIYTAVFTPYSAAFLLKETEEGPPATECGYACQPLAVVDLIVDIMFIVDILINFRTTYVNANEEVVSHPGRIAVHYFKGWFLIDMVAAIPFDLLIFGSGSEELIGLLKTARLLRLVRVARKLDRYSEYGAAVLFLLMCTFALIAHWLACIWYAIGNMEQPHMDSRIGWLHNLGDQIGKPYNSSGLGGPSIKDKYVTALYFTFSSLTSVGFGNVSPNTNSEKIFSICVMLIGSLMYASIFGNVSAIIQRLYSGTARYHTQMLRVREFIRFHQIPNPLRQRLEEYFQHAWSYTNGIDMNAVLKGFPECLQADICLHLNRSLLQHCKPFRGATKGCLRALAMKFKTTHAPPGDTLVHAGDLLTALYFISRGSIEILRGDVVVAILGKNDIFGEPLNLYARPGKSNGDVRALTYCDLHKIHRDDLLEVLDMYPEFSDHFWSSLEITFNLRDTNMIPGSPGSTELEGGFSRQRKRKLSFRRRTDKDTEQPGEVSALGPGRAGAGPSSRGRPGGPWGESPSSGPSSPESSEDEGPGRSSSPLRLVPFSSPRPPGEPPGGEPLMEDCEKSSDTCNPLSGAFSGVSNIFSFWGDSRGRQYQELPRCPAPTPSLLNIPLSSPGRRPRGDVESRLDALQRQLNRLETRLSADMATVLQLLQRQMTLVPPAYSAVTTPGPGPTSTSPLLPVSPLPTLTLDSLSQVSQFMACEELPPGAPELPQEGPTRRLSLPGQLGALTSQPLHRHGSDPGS
T2 sequence (Q07343 1-564 isoform Q07343-2): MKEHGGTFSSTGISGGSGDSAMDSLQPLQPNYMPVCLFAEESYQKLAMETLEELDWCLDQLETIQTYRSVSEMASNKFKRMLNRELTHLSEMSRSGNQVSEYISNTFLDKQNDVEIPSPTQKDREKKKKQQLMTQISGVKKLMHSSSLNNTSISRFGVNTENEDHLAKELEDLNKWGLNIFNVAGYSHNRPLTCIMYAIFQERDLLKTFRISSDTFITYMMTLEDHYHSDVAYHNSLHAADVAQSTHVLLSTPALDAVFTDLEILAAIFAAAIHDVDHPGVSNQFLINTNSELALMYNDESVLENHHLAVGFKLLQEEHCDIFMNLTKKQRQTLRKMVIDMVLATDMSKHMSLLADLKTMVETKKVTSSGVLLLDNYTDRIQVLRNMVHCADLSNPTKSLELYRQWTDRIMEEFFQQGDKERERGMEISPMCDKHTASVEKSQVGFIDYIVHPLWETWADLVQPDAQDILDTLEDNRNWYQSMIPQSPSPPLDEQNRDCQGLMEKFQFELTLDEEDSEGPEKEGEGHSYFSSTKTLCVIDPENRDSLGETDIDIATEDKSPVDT

Compound	IC50 (hERG potassium channel; [1]) [nM]	IC50 (PDE4B2) [nM]	IC50 (hERG potassium channel) [nM]
[O-][S+]1CCc2nc(N3CC=C(c4ncc(Cl)cn4)CC3)nc(NC3(CO)CCC3)c21 (stereo not drawn) [Example 1, 2-(4-(5-chloropyrimidin-2-yl)-3,6-dihydropyridin-1(2H)-yl)-4-((1-(hydroxymethyl)cyclobutyl)amino)-6,7-dihydrothiopheno[3,2-d]pyrimidine-5-oxide]	14500		
[O-][S+]1CCc2nc(N3CCN(Cc4ncc(Cl)cn4)CC3)nc(NC3(CO)CCC3)c21 (stereo not drawn) [Example 2, 2-(4-((S-chloropyrimidin-2-yl)methyl)piperazin-1-yl)-4-((1-(hydroxymethyl)cyclobutyl)amino)-6,7-dihydrothiopheno[3,2-d]pyrimidine 5-oxide]	> 30000	20 to 100	
O=C(c1ncc(Cl)cn1)N1CCN(c2nc3c(c(NC4(CO)CCC4)n2)[S+]([O-])CC3)CC1 (stereo not drawn) [Example 3, (5-chloropyrimidin-2-yl)(4-(4-((1-(hydroxymethyl)cyclobutyl)amino)-5-oxo-6,7-dihydrothieno[3,2-d]pyrimidin-2-yl)piperazin-1-yl)methanone]	> 30000		
O=S1(=O)CCc2nc(N3CCC(c4ncc(Cl)cn4)CC3)nc(NC3(CO)CCC3)c21 [Example 4]	> 30000	20 to 100	
Cc1ccc(O)c(C(=O)NC2CCN(c3nc4c(c(NC5(CO)CCC5)n3)[S+]([O-])CC4)CC2)c1 (stereo not drawn) [Example 7, 2-hydroxyl-N-(1-(4-((1-(hydroxymethyl)cyclobutyl)amino)-5-oxo-6,7-dihydrothiapheno[3,2-d]pyrimidin-2-yl)piperidin-4-yl)-5-methylbenzamide]	> 30000	1 to 20	
[O-][S+]1CCc2nc(N3CC4(CN(c5ncc(Cl)cn5)C4)C3)nc(NC3(CO)CCC3)c21 (stereo not drawn) [Example 8]	> 30000	20 to 100	
O=C(O)Cc1ccc(Nc2nc(N3CC=C(c4ncc(Cl)cn4)CC3)nc3c2[S+]([O-])CC3)cc1F (stereo not drawn) [Example 14, 2-(4-((2-(4-(5-chloropyrimidin-2-yl)-3,6-dihydropyridin-1(2H)-yl)-5-oxo-6,7-dihydrothiopheno[3,2-d]pyrimidin-4-yl)amino)-2-fluorophenyl)acetic acid]	> 30000		
O=C(O)Cc1ccc(Nc2nc(N3CC=C(c4ncc(Cl)cn4)CC3)nc3c2S(=O)(=O)CCC3)cc1F [Example 18, 2-(4-((2-(4-(5-chloropyrimidin-2-yl)-3,6-dihydropyridin-1(2H)-yl)-5,5-dioxo-7,8-dihydro-6H -thiapyrano[3,2-d]pyrimidin-4-yl)amino)-2-fluorophenyl)acetic acid]		< 1	
O=C(O)Cc1ccc(Nc2nc(N3CCC(c4ncc(Cl)cn4)CC3)nc3c2S(=O)(=O)CCC3)cc1Cl [Example 21, 2-(2-chloro-4-((2-(4-(5-chloropyrimidin-2-yl)piperidin-1-yl)-5,5-dioxo-7,8-dihydro-6H -thiapyrano[3,2-d]pyrimidin-4-yl)amino)phenyl)acetic acid]	> 30000	1 to 20	
O=C(O)Cc1c(F)cc(Nc2nc(N3CCC(c4ncc(Cl)cn4)CC3)nc3c2S(=O)(=O)CCC3)cc1F [Example 22, 2-(4-((2-(4-(5-chloropyrimidin-2-yl)piperidin-1-yl)-5,5-dioxo-7,8-dihydro-6H -thiapyrano[3,2-d]pyrimidin-4-yl)amino)-2,6-difluorophenyl)acetic acid]	> 30000	1 to 20	
O=C(O)C1(c2ccc(Nc3nc(N4CCC(c5ncc(Cl)cn5)CC4)nc4c3S(=O)(=O)CCC4)cc2F)CC1 [Example 23, 1-(4-((2-(4-(5-chloropyrimidin-2-yl)piperidin-1-yl)-5,5-dioxo-7,8-dihydro-6H-thiapyrano[3,2-d]pyrimidin-4-yl)amino)-2-fluorophenyl)cyclopropane-1-carboxylic acid]		1 to 20	
CC(C)(C)CNC(=O)Cc1ccc(Nc2nc(N3CCC(c4ncc(Cl)cn4)CC3)nc3c2S(=O)(=O)CCC3)cc1F [Example 24, 2-(4-((2-(4-(5-chloropyrimidin-2-yl)piperidin-1-yl)-5,5-dioxo-7,8-dihydro-6H -thiapyrano[3,2-d]pyrimidin-4-yl)amino)-2-fluorophenyl) -N-neopentylacetamide]			> 30000
O=C(O)C1(c2ccc(Nc3nc(N4CCC(c5ncc(Cl)cn5)CC4)nc4c3S(=O)(=O)CCC4)cc2F)CCC1 [Example 25, 1-(4-((2-(4-(5-chloropyrimidin-2-yl)piperidin-1-yl)-5,5-dioxo-7,8-dihydro-6H -thiapyrano[3,2-d]pyrimidin-4-yl)amino)-2-fluorophenyl)cyclobutane-1-carboxylic acid]		1 to 20	
O=C(O)C1(c2ccc(Nc3nc(N4CC=C(c5ncc(Cl)cn5)CC4)nc4c3S(=O)(=O)CCC4)cc2F)CCC1 [Example 26, 1-(4-((2-(4-(5-chloropyrimidin-2-yl)-3,6-dihydropyridin-1(2H)-yl)-5,5-dioxo-7,8-dihydro-6H -thiapyrano[3,2-d]pyrimidin-4-yl)amino)-2-fluorophenyl)cyclobutane-1-carboxylic acid]	> 30000		
O=C(O)Cc1ccc(Nc2nc(N3CCN(c4ncc(Cl)cn4)CC3)nc3c2S(=O)(=O)CCC3)cc1F [Example 27, 2-(4-((2-(4-(5-chloropyrimidin-2-yl)piperazin-1-yl)-5,5-dioxo-7,8-dihydro-6H -thiapyrano[3,2-d]pyrimidin-4-yl)amino)-2-fluorophenyl)acetic acid]		1 to 20	
